Converted amounts (≈) assume the structure as drawn.
What was measured:
KB = assay: Cytotoxicity against human KB cells; assay type: functional; details: read-out: ED50 (the source's name)
P388 = assay: In vivo antitumor activity against mouse P388 cells at 2.5 to 10 mg/kg relative to control; assay type: functional; details: dose mg/kg 2.5-10

In the case of C/C=C1\CN2CCc3c([nH]c4ccccc34)[C@@H]2C[C@@H]1[C@@H](CO)C(=O)OC, the EC50 (KB) is reported as 1.2 µg/mL (≈ 3.39 µM) and the T/C (P388) is reported as “>=150%”.

Reference: ChEMBL document CHEMBL1145658, “Catharanthus alkaloids XXXVII. 16-Epi-Z-isositsirikine, a monomeric indole alkaloid with antineoplastic activity from Catharanthus roseus and Rhazya stricta” (1983)
